Drawing on PubChem BioAssay AID2124 (Sanford-Burnham Center for Chemical Genomics, 2009), this text covers z-score and cell count for 65 molecules.

Records with an inconclusive call do not appear. Active and inactive are the calls of the source. How the calls were made is not given here; tested in MIN6 cells.

The test in a line: GFP-wavelength compound autofluorescence in cells – imaging, high-content imaging, artefact control, dose response (AID 2124).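 On all read-outs here: cells exposed to compound for 48 hours before fixing.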 Conditions: cells, GFP-channel autofluorescence, high-content imaging, at 10 µM; for z-score: stronger effect = higher value.

In the case of `COC(=O)c1cc(NC(=O)c2ccccc2)c(=O)oc1/C=C/Nc1ccc(Oc2ccccc2)cc1`, the z-score was 0.11 and the cell count is 3070 cells.
Taken in the same sequence, the figures for `CCN1/C(=C/c2cc[n+](CCCS(=O)(=O)[O-])c3ccccc23)Sc2ccccc21` were -0.24 (inactive) and 1390 cells.
In the same order, the values of `COC(=O)c1cc2c(-c3ccccc3)cc3ccccn3c-2c1C(=O)OC` are -0.23 (inactive) and 2880 cells.
For `Cc1cc2nc3c(=O)n(Cc4ccccc4)c(=O)[nH]c3nc2cc1N`, the z-score is -0.33 (inactive) and the cell count worked out at 2710 cells.
Taken in the same sequence, the figures for `CC(C)=NNc1nc2c(c(=O)n(C)c(=O)n2C)n1CCc1ccccc1` were -0.39 (inactive) and 3610 cells.
In the same order, the values of `N#Cc1c2c(c(-n3cnc4ccccc43)n3c1nc1ccccc13)CCC2` are -0.25 (inactive) and 3100 cells.
As for `O=C(CCl)Nc1cccc2ncccc12`, the z-score is -0.38 (inactive) and the cell count was 2060 cells.
In the same order, the values of `CCOC(=O)N1CCN(C(=O)c2cc(S(=O)(=O)N3CCCC3)cn2C)CC1` are -0.33 (inactive) and 3250 cells.
`COc1cccc(NC(=O)Cn2c(-c3cncs3)nc3ccccc32)c1`: the z-score is -0.39 (inactive) and the cell count was found to be 3160 cells.
As for `CCC(C)N1C(=O)/C(=C/c2c(NCCCOC(C)C)nc3c(C)cccn3c2=O)SC1=S` (stereo not given), the z-score is 1.19 and the cell count stood at 2350 cells.
In the same order, the values of `NS(=O)(=O)c1cccc2cccnc12` are -0.33 (inactive) and 3060 cells.
With `Cc1[nH]c2ccccc2c1/C=N/Nc1ccc([N+](=O)[O-])cc1S(=O)(=O)Nc1ccc(Cl)cc1`, the z-score is 0.35 and the cell count was found to be 2050 cells.
For `C1=C(c2ccccc2)Nc2nnnn2C1`, the z-score is -0.26 (inactive) and the cell count amounted to 3170 cells.
For the molecule `O=Nc1c(O)n(Cc2ccc(Cl)cc2)c2ccccc12`, the z-score is -0.33 (inactive) and the cell count was 3420 cells.
For `CCC(=O)OCC(=O)c1c(N)n(Cc2ccccc2)c(=O)n(C)c1=O`, the z-score was -0.33 (inactive) and the cell count worked out at 2890 cells.
Consider `CC(=Nc1ccc(C)cc1C)c1sc2ccccc2c1O`, for which the z-score was -0.3 (inactive) and the cell count stood at 2760 cells.
Turning to `CCN(CC)c1ccc(/C=C(/C#N)c2nc3ccc(C)cc3[nH]2)c(OC(C)C)c1`, the z-score is 2.57 and the cell count came out at 1480 cells.
Take `Cc1cc(C)nc(SCSc2nc(C)cc(C)n2)n1`: the z-score is -0.38 (inactive) and the cell count turned out to be 3370 cells.
Taken in the same sequence, the figures for `CCCCCCn1c(O)c(C=Nc2ccccc2N2CCOCC2)c(=O)[nH]c1=S` were -0.37 (inactive) and 3050 cells.
In the same order, the values of `O=C(COC(=O)c1ccco1)NCC1CCCO1` (stereo not given) are -0.39 (inactive) and 2790 cells.
On to `COc1cc2nc(/C=C/c3ccc(N(C)C)cc3)sc2cc1SC`, for which the z-score is 0.29 and the cell count came out at 2900 cells.
Take `O=C1N/C(=N/Nc2ccccc2)S/C1=C\c1ccccc1`: the z-score is -0.26 (inactive) and the cell count came out at 3090 cells.
Turning to `CCCCCOC(=O)C1=C(C)Nc2nnnn2C1c1ccc(OC)c(OC)c1OC` (stereo not given), the z-score was -0.39 (inactive) and the cell count stood at 3580 cells.
For the molecule `N#Cc1nc(N2CCOCC2)nc(N2CCOCC2)n1`, the z-score was -0.39 (inactive) and the cell count came to 3120 cells.
Take `O=C1S/C(=C\c2ccc(N3CCOCC3)o2)C(=O)N1Cc1c(F)cccc1Cl`: the z-score was 2.04 and the cell count was 1540 cells.
For `O=C(Cc1nc(-c2ccc([N+](=O)[O-])cc2)cs1)Nc1ccccc1`, the z-score was -0.39 (inactive) and the cell count turned out to be 2770 cells.
With `CCCCc1ccc2[nH]cc(CCN)c2c1`, the z-score was -0.38 (inactive) and the cell count worked out at 2320 cells.
Taken in the same sequence, the figures for `Clc1ccc2oc(-c3ccccn3)nc2c1` were -0.24 (inactive) and 2940 cells.
In the same order, the values of `CCc1cccc2cc3c(N)c(C(=O)Nc4ccc(S(=O)(=O)N5CCCC5)cc4)sc3nc12` are 0.3 and 2430 cells.
Taken in the same sequence, the figures for `COc1cc(OC)cc(C(=O)Nc2cccc(C(C)=O)c2)c1` were -0.39 (inactive) and 3260 cells.
For the molecule `CC(=O)C(=Cc1cn(-c2ccccc2)nc1-c1ccccc1)C(C)=O`, the z-score is -0.32 (inactive) and the cell count was found to be 3020 cells.
For the molecule `CCN(CC)c1ccc(C(=O)N/N=C/c2ccc(N3CCOCC3)cc2)cc1`, the z-score is -0.37 (inactive) and the cell count amounted to 3040 cells.
`COc1cc(N2CCCC2)c(OC)cc1/C=C(/C#N)c1cccc(Br)c1`: the z-score was 0.19 and the cell count came out at 3340 cells.
Taken in the same sequence, the figures for `N#C/C(=C\c1ccc(N2CCOCC2)o1)c1nc2ccccc2[nH]1` were 0.96 and 2400 cells.
For the molecule `CC(=O)C1=C(C)Nc2ncnn2C1c1ccc(Cl)cc1Cl` (stereo not given), the z-score is -0.33 (inactive) and the cell count came out at 3270 cells.
Taken in the same sequence, the figures for `CN(CCCNC(=O)CN1C(=O)CC(C)(C)S(=O)(=O)c2ccccc21)C1CCCCC1` were -0.33 (inactive) and 3030 cells.
`CN(C)c1ccc(/C=C2\SC(=O)N(CCc3nnc(N)s3)C2=O)cc1`: the z-score is -0.3 (inactive) and the cell count stood at 3290 cells.
Taken in the same sequence, the figures for `C=CCNC(=O)/C(=C\c1ccc(Br)cc1)NC(=O)c1ccccc1OC` were -0.39 (inactive) and 3390 cells.
Regarding `COc1ccc(OCC(=O)Nc2ccc(S(=O)(=O)Nc3cc(C)nc(C)n3)cc2)cc1`, the z-score was -0.33 (inactive) and the cell count is 3070 cells.
Taken in the same sequence, the figures for `CCc1ccccc1N1C(=O)/C(=C/c2ccc(N3CCN(C)CC3)o2)C(=O)NC1=S` were -0.35 (inactive) and 2580 cells.
In the same order, the values of `O=C(CCN1C(=O)/C(=C/c2cccs2)SC1=S)NNC(=O)c1cccc(O)c1` are -0.33 (inactive) and 3190 cells.
Taken in the same sequence, the figures for `CCn1c(Cn2nnc(-c3ccccc3)n2)nnc1SCC(=O)Nc1ccc(C(C)=O)cc1` were -0.33 (inactive) and 3180 cells.
For the molecule `CCN(CC)c1ccc(C=C(c2nnnn2-c2ccccc2)c2nnnn2-c2ccccc2)cc1`, the z-score was -0.26 (inactive) and the cell count was 2370 cells.
Taken in the same sequence, the figures for `N#C/C(=C/c1ccc(N2CCOCC2)o1)c1ccc(Br)cc1` were 0.24 and 555 cells.
As for `CC1CC(=O)C2=C(C1)OC(N)=C(C#N)C2c1coc2ccccc2c1=O` (stereo not given), the z-score was -0.38 (inactive) and the cell count was 3180 cells.
In the same order, the values of `CCn1cc(C(=O)NCCN(C)CCc2ccccc2)c(=O)c2cc(S(=O)(=O)N(C)C)ccc21` are -0.33 (inactive) and 3360 cells.
Take `Cc1cc(S(=O)(=O)NC2CCCCC2)c(C)s1`: the z-score was -0.33 (inactive) and the cell count is 3420 cells.
Take `Nc1nc(-c2ccc(Cl)cc2)c(N=Nc2ccc(S(=O)(=O)N3CCOCC3)cc2)s1`: the z-score was -0.32 (inactive) and the cell count came out at 2990 cells.
Taken in the same sequence, the figures for `CCN1CC=C2C(C#N)=C(N)C(C#N)(C#N)[C@H](c3cccc(OC)c3OC)[C@H]2C1` were 0.28 and 2790 cells.
Consider `CN(C)c1ccc(/C=C2\N=C(c3ccc(Cl)c([N+](=O)[O-])c3)NC2=O)cc1`, for which the z-score was -0.33 (inactive) and the cell count was found to be 2940 cells.
In the same order, the values of `N#Cc1c(-c2ccco2)cc(C2CC2)nc1SCC(=O)c1ccccc1` are -0.27 (inactive) and 3090 cells.
With `CN1C(=S)N(c2cccnc2)C(=O)/C1=C\c1ccc(N(C)C)cc1`, the z-score was -0.22 (inactive) and the cell count stood at 3030 cells.
For the molecule `CC(=O)OC(C(=O)NCc1ccc(F)cc1)c1ccccn1` (stereo not given), the z-score was -0.39 (inactive) and the cell count was 2840 cells.
In the same order, the values of `COc1ccccc1NC(=O)COC(=O)C1CC2C=CC1C2` (stereo not given) are -0.25 (inactive) and 2990 cells.
Taken in the same sequence, the figures for `CN(C)CCOCCOc1ccccc1-c1ccccc1` were -0.33 (inactive) and 3130 cells.
In the case of `CC(=O)N1CCN(Cc2nc3cc(NC(=O)c4ccccc4)ccc3n2C)CC1`, the z-score is -0.38 (inactive) and the cell count stood at 2960 cells.
Regarding `C=CCNC(=O)C1CCN(S(=O)(=O)c2ccc(Br)cc2)CC1`, the z-score is -0.33 (inactive) and the cell count is 3230 cells.
With `Cc1ccc(S(=O)(=O)C(C#N)c2nc3ccccc3nc2N2CCC(C)CC2)cc1` (stereo not given), the z-score was -0.33 (inactive) and the cell count was 3260 cells.
On to `Cc1cc(C)n(-c2ccc(C(=O)OCC(=O)N(CC(C)C)C3CCS(=O)(=O)C3)cc2)n1` (stereo not given), for which the z-score was -0.33 (inactive) and the cell count worked out at 3480 cells.
As to `CCOC(=O)Cn1c2ccc(F)cc2c2nc(C)sc21`, the z-score was -0.39 (inactive) and the cell count worked out at 2900 cells.
On to `Cc1cc(=O)oc2cc(OCC(=O)OCC(=O)NC3CC3)ccc12`, for which the z-score was -0.38 (inactive) and the cell count was 3150 cells.
Consider `Brc1ccc(Oc2nsnc2N2CCOCC2)cc1`, for which the z-score is -0.34 (inactive) and the cell count is 3270 cells.
On to `COc1ccc(C2/C=C\CN(S(=O)(=O)c3cccc4cccnc34)CC(=O)N2Cc2ccc(F)cc2)cc1` (stereo not given), for which the z-score is -0.39 (inactive) and the cell count was 3760 cells.
In the same order, the values of `CCc1ccc(NC(=O)c2cc(C(C)C)on2)cc1` are -0.39 (inactive) and 3050 cells.
Consider `O=C(/C=C/c1c[nH]c2ccccc12)c1c(O)n(CCc2ccccc2)c(=O)[nH]c1=O`, for which the z-score is 2.73 and the cell count amounted to 2920 cells.
